Measured values from US20230173018A1, “CASPOFUNGIN DERIVATIVES AND ASSAYS FOR EVALUATING ANTIFUNGAL TREATMENT EFFICACY” (priority 2020, published 2023).
In brackets after ≈: the same amount, converted by molar mass. Where two headings read alike, the source gives them in different places.

Assays:
Assay type in all cases: cell-based
C. albicans ATCC 10231 = assay: MIC, broth double dilution
Description: (§1) The antifungal activities of compounds 1a, 1 and 2 (collectively: caspofungin derivatives) were compared to that of caspofungin and CSF-BOD using a panel of 49 C. albicans and C. glabrata strains (Tables 1 and 2). The panel included ATCC strains and clinical isolates as well a collection of caspofungin-responsive strains and their corresponding isogenic caspofungin-resistant derivatives, constructed by introducing point mutations within and near the defined hotspots in the FKS1 and/or FKS2 genes of the GS complex. Minimal inhibitory concentration (MIC) values for all strains were determined using the broth double dilution method and are summarized in FIG. 2 and Table 2. […] The clinical breakpoints (threshold) for caspofungin-resistance in C. albicans and C. glabrata are 1 μg/mL and 0.5 μg/mL, respectively.

C. glabrata CST34 = assay: MIC, broth double dilution; conditions: strain no. 21, C. glabrata CST34 (parental)
Description: as §1

[1] = test system: C. glabrata T-982 (11-181); assay: MIC, broth double dilution
Description: as §1

[2] = test system: C. glabrata T-983 (11-079); assay: MIC, broth double dilution
Description: as §1

C. albicans SC5314 = assay: MIC, broth double dilution; conditions: strain no. 1, C. albicans SC5314, WT
Description: as §1

[3] = test system: C. glabrata T-191 (11-331); assay: MIC, broth double dilution
Description: as §1

[4] = test system: C. glabrata T-190 (11-304); assay: MIC, broth double dilution
Description: as §1

C. glabrata DPL1086 = assay: microbe, parasite or virus in culture
Description: as §1

[5] = test system: C. albicans T-2074 (DP-122); assay: microbe, parasite or virus in culture
Description: as §1

[6] = test system: C. albicans DPL1016 (DP-A15-10); assay: microbe, parasite or virus in culture
Description: as §1

C. glabrata TGL00091 = assay: microbe, parasite or virus in culture
Description: as §1

[7] = test system: C. albicans T-2069 (DP-85); assay: microbe, parasite or virus in culture
Description: as §1

[8] = test system: C. albicans T-2077 (DP-205); assay: microbe, parasite or virus in culture
Description: as §1

C. glabrata TGL00277 = assay: microbe, parasite or virus in culture
Description: as §1

[9] = test system: C. albicans DPL1015 (DP-A15); assay: microbe, parasite or virus in culture
Description: as §1

C. glabrata TGL00258 = assay: microbe, parasite or virus in culture
Description: as §1

C. albicans SN95 = assay: microbe, parasite or virus in culture; conditions: strain no. 8, SN95, parental RM1000
Description: as §1

[10] = test system: C. albicans T-2068 (DP-C42); assay: microbe, parasite or virus in culture
Description: as §1

C. glabrata TGL00253 = assay: microbe, parasite or virus in culture
Description: as §1

C. glabrata TGL00107 = assay: microbe, parasite or virus in culture
Description: as §1

C. glabrata TGL00265 = assay: microbe, parasite or virus in culture
Description: as §1

C. glabrata TGL00275 = assay: microbe, parasite or virus in culture
Description: as §1

[11] = test system: C. glabrata T-985 (11-076); assay: microbe, parasite or virus in culture; conditions: strain no. 49, T-985 (11-076), clinical isolate
Description: as §1

C. glabrata TGL00054 = assay: microbe, parasite or virus in culture
Description: as §1

C. glabrata TGL00293 = assay: microbe, parasite or virus in culture
Description: as §1

C. glabrata TGL00264 = assay: microbe, parasite or virus in culture
Description: as §1

C. glabrata TGL00294 = assay: microbe, parasite or virus in culture
Description: as §1

C. glabrata TGL00056 = assay: microbe, parasite or virus in culture
Description: as §1

C. glabrata CST78 = assay: microbe, parasite or virus in culture; conditions: strain no. 26, C. glabrata CST78
Description: as §1

C. glabrata TGL00065 = assay: microbe, parasite or virus in culture
Description: as §1

C. glabrata TGL00291 = assay: microbe, parasite or virus in culture
Description: as §1

C. glabrata TGL00256 = assay: microbe, parasite or virus in culture
Description: as §1

[12] = test system: C. albicans T-2076 (DP-194); assay: microbe, parasite or virus in culture
Description: as §1

C. albicans CG72 = assay: microbe, parasite or virus in culture; conditions: strain no. 7, CG72, parental CAM, pKE1:GFP-YPT72
Description: as §1

C. glabrata TGL00263 = assay: microbe, parasite or virus in culture
Description: as §1

[13] = Nakaseomyces glabratus, read-out: MIC
[14] = Candida albicans, read-out: MIC

## CC[C@H](C)C[C@H](C)CCCCCCCCC(=O)N[C@H]1C[C@@H](O)[C@@H](NCCN)NC(=O)[C@@H]2[C@@H](O)CCN2C(=O)[C@H]([C@H](O)CCN)NC(=O)[C@H]([C@H](O)[C@@H](O)c2ccc(OCc3cn(CCCNC(=O)c4ccc(-c5c6ccc(=[N+](C)C)cc-6oc6cc(N(C)C)ccc56)c(C(=O)[O-])c4)nn3)cc2)NC(=O)[C@@H]2C[C@@H](O)CN2C(=O)[C@H]([C@@H](C)O)NC1=O [Compound 1]
C. albicans ATCC 10231; strain no. 11, C. albicans ATCC 10231
  MIC: 0.5 µg/mL (≈ 0.304 µM)
C. glabrata CST34
  MIC: 0.5 µg/mL (≈ 0.304 µM)
[1]; strain no. 46, T-982 (11-181), clinical isolate
  MIC: 0.5 µg/mL (≈ 0.304 µM)
[2]; strain no. 47, T-983 (11-079), clinical isolate
  MIC: 0.5 µg/mL (≈ 0.304 µM)
C. albicans SC5314
  MIC: 0.25 µg/mL (≈ 0.152 µM)
[3]; strain no. 43, T-191 (11-331), clinical isolate
  MIC: 0.5 µg/mL (≈ 0.304 µM)
[4]; strain no. 42, T-190 (11-304), clinical isolate
  MIC: 0.5 µg/mL (≈ 0.304 µM)
C. glabrata DPL1086; strain no. 17, DPL1086, parental ATCC 90030, FKS1 mutant HS1-S629P
  MIC: 8 µg/mL (≈ 4.87 µM)
[5]; strain no. 12, T-2074 (DP-122), clinical isolate, FKS1 HS1-P649H mutation
  MIC: 16 µg/mL (≈ 9.73 µM)
[6]; strain no. 3, DPL1016 (DP-A15-10), parental SC5314, FKS1 mutant HS1-S645P
  MIC: 64 µg/mL (≈ 38.9 µM)
C. glabrata TGL00091; strain no. 35, TGL00091, FKS mutant
  MIC: >64 µg/mL
[7]; strain no. 14, T-2069 (DP-85), clinical isolate, FKS1 HS1-S645F mutation
  MIC: 64 µg/mL (≈ 38.9 µM)
[8]; strain no. 15, T-2077 (DP-205), clinical isolate, FKS1 HS1-S645P mutation
  MIC: >64 µg/mL
C. glabrata TGL00277; strain no. 33, TGL00277, parental EF1620, FKS mutant
  MIC: >64 µg/mL
[9]; strain no. 2, DPL1015 (DP-A15), parental SC5314, FKS1 mutant HS1-S645S/P
  MIC: 16 µg/mL (≈ 9.73 µM)
C. glabrata TGL00258; strain no. 25, TGL00258, parental CST34, FKS mutant
  MIC: >64 µg/mL
C. albicans SN95
  MIC: 0.5 µg/mL (≈ 0.304 µM)
[10]; strain no. 4, T-2068 (DP-C42), parental SC5314, FKS1 HS1-F641S mutation
  MIC: 64 µg/mL (≈ 38.9 µM)
C. glabrata TGL00253; strain no. 20, TGL00253, parental CST109, FKS2 mutant
  MIC: >64 µg/mL
C. glabrata TGL00107; strain no. 23, TGL00107, parental CST34, FKS mutant
  MIC: >64 µg/mL
C. glabrata TGL00265; strain no. 30, TGL00265, parental CST78, FKS mutant
  MIC: >64 µg/mL
C. glabrata TGL00275; strain no. 32, TGL00275, FKS mutant
  MIC: 64 µg/mL (≈ 38.9 µM)
[11]
  MIC: 1 µg/mL (≈ 0.608 µM)
C. glabrata TGL00054; strain no. 19, TGL00054, parental CST109, FKS2 mutant
  MIC: >64 µg/mL
C. glabrata TGL00293; strain no. 37, TGL00293, parental BG2, FKS mutant
  MIC: >64 µg/mL
C. glabrata TGL00264; strain no. 29, TGL00264, parental CST78, FKS mutant
  MIC: >64 µg/mL
C. glabrata TGL00294; strain no. 38, TGL00294, parental BG2, FKS mutant
  MIC: >64 µg/mL
C. glabrata TGL00056; strain no. 22, TGL00056, parental CST34, FKS mutant
  MIC: >64 µg/mL
C. glabrata CST78
  MIC: 1 µg/mL (≈ 0.608 µM)
C. glabrata TGL00065; strain no. 27, TGL00065, FKS mutant
  MIC: >64 µg/mL
C. glabrata TGL00291; strain no. 36, TGL00291, parental BG2, FKS mutant
  MIC: >64 µg/mL
C. glabrata TGL00256; strain no. 24, TGL00256, parental CST34, FKS mutant
  MIC: 4 µg/mL (≈ 2.43 µM)
[12]; strain no. 13, T-2076 (DP-194), clinical isolate, FKS1 HS1-S645F, HS2-R1361R/H mutation
  MIC: 32 µg/mL (≈ 19.5 µM)
C. albicans CG72
  MIC: 0.5 µg/mL (≈ 0.304 µM)
C. glabrata TGL00263; strain no. 28, TGL00263, parental CST78, FKS mutant
  MIC: >64 µg/mL

## CC[C@H](C)C[C@H](C)CCCCCCCCC(=O)N[C@H]1C[C@@H](O)[C@@H](NCCN)NC(=O)[C@@H]2[C@@H](O)CCN2C(=O)[C@H]([C@H](O)CCN)NC(=O)[C@H]([C@H](O)[C@@H](O)c2ccc(O)cc2)NC(=O)[C@@H]2C[C@@H](O)CN2C(=O)[C@H]([C@@H](C)O)NC1=O [Caspofungin]
C. albicans ATCC 10231; Candida albicans, ATCC10231
  MIC: 0.125 µg/mL (≈ 0.114 µM)
C. glabrata CST34; [13]
  MIC: 0.063 µg/mL (≈ 0.0576 µM)
[1]; Nakaseomyces glabratus
  MIC: 0.063 µg/mL (≈ 0.0576 µM)
[2]; Nakaseomyces glabratus
  MIC: 0.063 µg/mL (≈ 0.0576 µM)
C. albicans SC5314; [14]
  MIC: 0.031 µg/mL (≈ 0.0284 µM)
[3]; Nakaseomyces glabratus
  MIC: 0.063 µg/mL (≈ 0.0576 µM)
[4]; Nakaseomyces glabratus
  MIC: 0.063 µg/mL (≈ 0.0576 µM)
C. glabrata DPL1086; Nakaseomyces glabratus, ATCC90030
  MIC: 2 µg/mL (≈ 1.83 µM)
[5]; Candida albicans
  MIC: 1 µg/mL (≈ 0.915 µM)
[6]; Candida albicans, SC5314
  MIC: 16 µg/mL (≈ 14.6 µM)
C. glabrata TGL00091; Nakaseomyces glabratus, TGL00091
  MIC: > 64 µg/mL
[7]; Candida albicans
  MIC: 16 µg/mL (≈ 14.6 µM)
[8]; Candida albicans
  MIC: > 64 µg/mL
C. glabrata TGL00277; Nakaseomyces glabratus, TGL00277
  MIC: > 64 µg/mL
[9]; Candida albicans, SC5314
  MIC: 4 µg/mL (≈ 3.66 µM)
C. glabrata TGL00258; Nakaseomyces glabratus, TGL00258
  MIC: > 64 µg/mL
C. albicans SN95; [14]
  MIC: 0.063 µg/mL (≈ 0.0576 µM)
[10]; Candida albicans, SC5314
  MIC: 16 µg/mL (≈ 14.6 µM)
C. glabrata TGL00253; Nakaseomyces glabratus, TGL00253
  MIC: > 64 µg/mL
C. glabrata TGL00107; Nakaseomyces glabratus, TGL00107
  MIC: > 64 µg/mL
C. glabrata TGL00265; Nakaseomyces glabratus, TGL00265
  MIC: > 64 µg/mL
C. glabrata TGL00275; Nakaseomyces glabratus, TGL00275
  MIC: 8 µg/mL (≈ 7.32 µM)
[11]; [13]
  MIC: 0.125 µg/mL (≈ 0.114 µM)
C. glabrata TGL00054; Nakaseomyces glabratus, TGL00054
  MIC: > 64 µg/mL
C. glabrata TGL00293; Nakaseomyces glabratus, TGL00293
  MIC: > 64 µg/mL
C. glabrata TGL00264; Nakaseomyces glabratus, TGL00264
  MIC: 2 µg/mL (≈ 1.83 µM)
C. glabrata TGL00294; Nakaseomyces glabratus, TGL00294
  MIC: 16 µg/mL (≈ 14.6 µM)
C. glabrata TGL00056; Nakaseomyces glabratus, TGL00056
  MIC: > 64 µg/mL
C. glabrata CST78; [13]
  MIC: 0.125 µg/mL (≈ 0.114 µM)
C. glabrata TGL00065; Nakaseomyces glabratus, TGL00065
  MIC: > 64 µg/mL
C. glabrata TGL00291; Nakaseomyces glabratus, TGL00291
  MIC: > 64 µg/mL
C. glabrata TGL00256; Nakaseomyces glabratus, TGL00256
  MIC: 1 µg/mL (≈ 0.915 µM)
[12]; Candida albicans
  MIC: 2 µg/mL (≈ 1.83 µM)
C. albicans CG72; [14]
  MIC: 0.031 µg/mL (≈ 0.0284 µM)
C. glabrata TGL00263; Nakaseomyces glabratus, TGL00263
  MIC: 8 µg/mL (≈ 7.32 µM)
